{"source": "patent US11642352B2", "about": "“Methods of treating wandering in Lewy dody dementia” (WOOLSEY PHARMACEUTICALS, INC., priority 2020, dated 2023)", "key": {"[1]": {"system": "patients with Alzheimer's Dementia (AD) and frontotemporal dementia (FTD)", "assay": "clinical trial of oral fasudil on frequency of wandering (Example 1)", "format": "in vivo, human", "source_text": "Twenty patients, 10 with AD and 10 with FTD and an MMSE score ≤23, who are characterized wanderers, are enrolled into the study and observed for 2 weeks to confirm wandering behavior. […] The double-blind phase is followed by another treatment period of 6 weeks with the opposite treatment assignment (placebo or test drug taken with food).\nThe following inclusion criteria are applied:\n1. Patients 50 years to 90 years of age.\n2. Diagnosis of dementia (AD or VaD or mixed type) for at least 6 months.\n3. For entering observation period and for entering open label treatment period: Wanders:\n• a. Walks distinctly more than average as others of same age and ability AND/OR • b. Elopement behavior ≥3×per week in the opinion of the investigator For entering first double-blind treatment period: Wanders: • a. Walks less than half the mean distance measured in observation period AND/OR • b. Elopement behavior <1× per week in the opinion of the investigator AND/OR • c. Wandering has improved in the opinion of the Investigator. 4. For entering observation period and for entering open label treatment period: • a. MMSE between 10 and 25.\nWandering is measured in term of time in motion and distance traveled (measures of persistent wandering), attempted and successful boundary transgressions (measures of elopement) and patterns like pacing a lapping (indicative of persistent wandering and/or agitation or anxiety) using an electronic tracking device. A typical tracking device would use a combination of accelerometry with positioning, using technology like RFID or Bluetooth in an indoor environment and GPS outdoors. Other wayfinding, orientation and memory-associated wandering incidents are observed and recorded manually.\nWandering is measured in term of time in motion and attempted successful boundary transgression using an electronic tracking device. Other wayfinding, orientation and memory-associated wandering incidents are observed and recorded manually.\nThe Mini Mental State Exam (MMSE), Woolsey Wandering Questionnaire and Revised Algase Wandering Scale are administered at baseline and at the end of each treatment period. Any change in the use of antipsychotics or anxiolytics that could affect movement during the study is strongly discouraged."}, "[2]": {"system": "patients with wandering due to VaD", "conditions": "cited from earlier work"}, "[3]": {"system": "triple transgenic mouse model (APP Swedish, MAPT P301L, and PSEN1 M146V)", "conditions": "10 mg/kg/day intraperitoneally; cited from earlier work"}, "[4]": {"system": "APP/PS1 transgenic mice", "conditions": "5 and 10 mg/kg/day intraperitoneally; cited from earlier work"}, "[5]": {"system": "streptozotocin rats", "conditions": "intraperitoneally; cited from earlier work"}, "[6]": {"system": "triple transgenic mice", "conditions": "10 or 12 months of age, administered in water at 30 mg/kg and 100 mg/kg; cited from earlier work"}, "[7]": {"conditions": "in vivo, metabolite of fasudil; cited from earlier work"}, "[8]": {"system": "humans (AD)", "conditions": "cited from earlier work"}, "[9]": {"conditions": "on drug as compared to placebo, 90 mg/day (30 mg TID)"}}, "note": "Structures can show the parent of a compound that is named as a salt. Where two headings read alike, the source gives them in different places."}
{"smiles": "O=S(=O)(c1cccc2cnccc12)N1CCCNCC1", "note": "[fasudil, Hexahydro-1-(5-isoquinolinesulfonyl)-1H-1,4-diazepine monohydrochloride hemihydrate]", "values": [{"measurement": "wandering", "setting": "[1]; 90 mg/day (30 mg TID) oral, 6 weeks, AD and FTD patients", "result": "significant reduction in wandering"}, {"measurement": "mean increase in MMSE score, persistent wanderers", "setting": "[1]; [9]", "result": "greater than 3 points"}, {"measurement": "reduction of activity levels in persistent wanderers", "setting": "[1]; [9]", "result": "about 50%"}, {"measurement": "wayfinding errors and other problematic behaviors in sporadic wanderers", "setting": "[1]; while on drug, 90 mg/day (30 mg TID)", "result": "significant reduction"}, {"measurement": "wandering symptoms", "setting": "[2]; patient with Binswanger-type cerebral infarction, within weeks of beginning treatment", "result": "wandering symptoms disappeared"}, {"measurement": "wandering symptoms", "setting": "[2]; patient with sequelae of cerebral bleeding and multiple lacunar infarctions", "result": "Wandering symptoms disappeared quickly"}, {"measurement": "ß-amyloid plaques in vivo", "setting": "[3]", "result": "reduce ß-amyloid plaques"}, {"measurement": "latency distance and quadrant time in the Morris water maze", "setting": "[4]", "result": "improved"}, {"measurement": "latency distance and quadrant time in the Morris water maze", "setting": "[5]", "result": "improved"}, {"measurement": "spatial memory", "setting": "[6]", "result": "did not observe improvements"}]}
{"smiles": "O=S(=O)(c1cccc2c(O)nccc12)N1CCCNCC1", "note": "[M3]", "values": [{"measurement": "half-life", "setting": "[7]", "result": "about 8 hours"}]}
{"smiles": "O=c1ncn2nc(Sc3ccc(F)cc3F)ccc2c1-c1c(Cl)cccc1Cl", "note": "[Neflamapimod]", "values": [{"measurement": "primary endpoint of improving episodic memory", "setting": "[8]; Phase 2", "result": "failed"}, {"measurement": "tau in the cerebrospinal fluid", "setting": "[8]; Phase 2", "result": "reducing tau"}, {"measurement": "Aβ deposition", "setting": "[8]; humans", "result": "no effect"}]}
